# The source made the active and inactive calls.
# How the values were obtained:
# [1] = cytotoxicity in MITF-independent A375 cells – cell-based, CellTiter-Glo luminescence, dry powder, set 4, counter-screen for MITF inhibitor project, dose response (AID 624364); format: functional; details: A-375;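 note: A375 melanoma cells are MITF independent so this is a counter screen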
# [2] = viability loss in MITF-independent A375 cells – cell-based, CellTiter-Glo luminescence, dry powder, set 2, counter-screen for MITF inhibitor project, dose response (AID 624489); format: functional; details: A-375;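 note: actives are compounds lowering A375 viability meaning general cytotoxicity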
# [3] = target: Beta-2 adrenergic receptor (Homo sapiens, UniProt P07550); assay: ADRB2 activation measured by internalization – cell-based, FAP fluorogen, flow cytometry, cherry pick 1, dose response (AID 588763); format: functional
# Chain of Beta-2 adrenergic receptor (P07550 whole entry): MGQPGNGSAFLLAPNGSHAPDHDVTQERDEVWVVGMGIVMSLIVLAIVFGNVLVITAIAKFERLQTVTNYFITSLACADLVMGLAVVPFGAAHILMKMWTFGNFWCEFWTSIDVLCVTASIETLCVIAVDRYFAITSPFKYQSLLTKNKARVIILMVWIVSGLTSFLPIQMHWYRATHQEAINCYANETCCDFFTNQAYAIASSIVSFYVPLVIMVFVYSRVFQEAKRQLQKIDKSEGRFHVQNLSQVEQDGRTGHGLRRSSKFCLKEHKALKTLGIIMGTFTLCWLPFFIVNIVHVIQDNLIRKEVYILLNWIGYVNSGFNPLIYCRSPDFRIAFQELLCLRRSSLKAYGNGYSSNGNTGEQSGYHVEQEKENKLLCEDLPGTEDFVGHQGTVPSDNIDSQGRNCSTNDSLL
# [4] = reduction of Shn3 3'UTR-driven luciferase in osteoblasts – cell-based, Clone20 osteoblasts, firefly luciferase, cherry-picked, dose response (AID 624132); format: functional;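 note: firefly luciferase luminescence from reporter carrying the Shn3 3'UTR in osteoblasts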
# [5] = loss of viability in HepG2 cells – cell-based, CellTiter-Glo, cherry-picked, cytotoxicity control for Shn3 inhibitor project, dose response (AID 624134); format: functional
# [6] = non-specific 3'UTR reporter inhibition in Clone20-Shn3RL – cell-based, Renilla luciferase, cherry-picked, counter-screen for Shn3 inhibitor project, dose response (AID 624133); format: functional
# Paired box protein Pax-8 = Paired box protein Pax-8 (Homo sapiens, UniProt Q06710); assay: PAX8 transcriptional activity inhibition in RMG-I – RMG-I cells, luciferase, cherry-pick, dose response (AID 687027); format: functional, cell-based;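 note: luciferase reporter driven by Pax8 target thyroperoxidase promoter measured by SteadyGlo luminescence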
# Chain of Paired box protein Pax-8 (Q06710 whole entry): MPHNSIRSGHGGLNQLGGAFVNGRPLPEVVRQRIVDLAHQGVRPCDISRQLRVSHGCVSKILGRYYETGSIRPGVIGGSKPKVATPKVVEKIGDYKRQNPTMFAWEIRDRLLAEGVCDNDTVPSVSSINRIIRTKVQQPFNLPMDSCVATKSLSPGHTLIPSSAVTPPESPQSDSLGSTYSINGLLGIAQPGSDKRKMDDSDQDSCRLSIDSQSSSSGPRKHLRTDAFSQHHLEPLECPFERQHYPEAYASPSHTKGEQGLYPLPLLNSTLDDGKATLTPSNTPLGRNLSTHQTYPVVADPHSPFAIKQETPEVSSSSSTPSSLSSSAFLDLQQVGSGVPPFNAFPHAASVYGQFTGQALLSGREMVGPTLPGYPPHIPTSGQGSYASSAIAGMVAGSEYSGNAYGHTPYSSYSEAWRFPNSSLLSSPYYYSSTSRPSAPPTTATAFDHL
# [7] = Shn3 transcript knock-down in Clone20 cells – cell-based, qPCR, cherry-pick, dose response (AID 743415); format: functional
# [8] = Shn3 3'UTR reporter signal decrease – cell-based, Clone20 osteoblasts, firefly luciferase, cherry-pick, set 2, Schnurri-3 inhibitor project, dose response (AID 720490); format: functional;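 note: actives lower the luminescence signal as inhibitors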
# [9] = A549 cell cytotoxicity, dose response, cytotoxicity control, plate reader, cherry-pick, antagonist series (AID 743412); format: functional, cell-based
# [10] = toxicity toward HepG2 liver cells – cell-based, plate reader, cherry-pick, antagonist series, cytotoxicity control, dose response (AID 743416); format: functional
# [11] = EF1alpha-driven Renilla reporter with control 3'UTR suppression – Clone20-Shn3RL cells, dual-Glo, cherry-pick, set 2, counter-screen for Shn3 3'UTR targeting project, dose response (AID 720724); format: functional, cell-based; details: Dual-Go Shn3RL
# [12] = blockers of bursicon-stimulated LGR2 cAMP reporter – cell-based, HEK293, CRE-luciferase reporter, cherry pick, set 2, dose response (AID 743343); format: functional;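 note: transfected cells were stimulated with diluted bursicon conditioned medium after compound addition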
# [13] = blockade of melanocortin 4 receptor signaling – cell-based, plate reader, cherry pick, counter-screen for LGR2 antagonist project, dose response (AID 743444); format: functional;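 note: transfected HEK 293 cells stimulated with alpha-MSH peptide; potency of inhibitors of the alpha-MSH evoked signal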
# [14] = viability loss in HEK293 cells – cell-based, plate reader, cherry-picked samples, cytotoxicity control, dose response (AID 743446); format: functional
# [15] = target: T1, Oxysterols receptor LXR-beta (Homo sapiens, UniProt P55055); format: functional, cell-based;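 note: agonist activity at LXR measured by a cell-based luminescence readout across a dose range, run as a counterscreen for daf-12 agonists; HEK293 cells with Gal4-LXR fusion and GAL4-driven luciferase reporter; potency for activation of Gal4-LXR reporter so compounds are agonists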
# T1 sequence (P55055 whole entry): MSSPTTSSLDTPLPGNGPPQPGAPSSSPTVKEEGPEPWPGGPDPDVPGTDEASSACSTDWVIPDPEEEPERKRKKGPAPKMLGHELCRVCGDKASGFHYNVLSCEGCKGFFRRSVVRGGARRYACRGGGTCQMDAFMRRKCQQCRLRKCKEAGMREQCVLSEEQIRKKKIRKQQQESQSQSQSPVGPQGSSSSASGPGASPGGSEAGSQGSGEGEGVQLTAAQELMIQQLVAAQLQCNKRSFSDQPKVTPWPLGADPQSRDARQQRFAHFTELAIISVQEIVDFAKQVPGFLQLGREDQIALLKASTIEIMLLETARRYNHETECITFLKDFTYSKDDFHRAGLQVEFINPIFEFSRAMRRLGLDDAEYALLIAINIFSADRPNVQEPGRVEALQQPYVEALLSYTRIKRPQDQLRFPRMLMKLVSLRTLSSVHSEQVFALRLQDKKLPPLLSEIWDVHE
# [16] = blockers of HIV-1 envelope-mediated cell-cell fusion – cherry-pick, dose response (AID 652057); format: functional, cell-based
# [17] = blockers of HIV-1 ZM109 envelope-driven cell-cell fusion – HeLa effector, CEM target cells, luciferase, cherry-pick, dose response (AID 652058); format: functional, cell-based;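 note: luciferase signal from HIV-1 Env mediated cell-cell fusion of effector and target cells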
# [18] = HIV-1 AD8 envelope cell-cell fusion blockers – cherry-pick, dose response (AID 652062); format: functional, cell-based;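 note: luciferase signal from cell-cell fusion driven by HIV-1 clade B AD8 Env; potency is for inhibitors of fusion seen as a drop in luminescence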
# [19] = inhibition of Env-driven cell fusion – HIV entry, plate reader, dry powder, dose response (AID 687023); format: functional, cell-based
# cells [20] = format: functional, cell-based
# [21] = target: T2, Trace amine-associated receptor 1 (Homo sapiens, UniProt Q96RJ0); assay: Fluorescence-based cell-based high throughput dose response assay to identify agonists of the human trace amine associated receptor 1 (TAAR1).; format: functional
# T2 sequence (Q96RJ0 whole entry): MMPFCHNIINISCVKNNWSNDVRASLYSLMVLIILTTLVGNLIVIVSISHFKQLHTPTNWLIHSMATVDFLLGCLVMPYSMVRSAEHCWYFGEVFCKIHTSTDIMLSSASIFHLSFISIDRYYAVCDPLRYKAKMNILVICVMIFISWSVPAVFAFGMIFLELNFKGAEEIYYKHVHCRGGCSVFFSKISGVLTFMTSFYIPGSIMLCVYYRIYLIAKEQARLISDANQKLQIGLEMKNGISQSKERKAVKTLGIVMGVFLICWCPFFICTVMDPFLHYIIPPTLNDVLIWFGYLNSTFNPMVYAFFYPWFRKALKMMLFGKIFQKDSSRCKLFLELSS
# [22] = target: T2, Trace amine-associated receptor 1; assay: Counterscreen for agonists of the human trace amine associated receptor 1 (hTAAR1): Fluorescence-based cell-based high throughput dose response assay to identify hTAAR1 agonist that also desensitize TAAR1 receptor response.; format: functional
# cells [23] = format: functional, cell-based; remark: listed apart in the source
# [24] = target: Metabotropic glutamate receptor 3 (Rattus norvegicus, UniProt P31422); assay: inhibitors of rat mGlu3 Galpha15 signaling – TREx293 cells, calcium flux, mGlu3 NAM project, dose response (AID 651840); format: functional
# Chain of Metabotropic glutamate receptor 3 (P31422 whole entry): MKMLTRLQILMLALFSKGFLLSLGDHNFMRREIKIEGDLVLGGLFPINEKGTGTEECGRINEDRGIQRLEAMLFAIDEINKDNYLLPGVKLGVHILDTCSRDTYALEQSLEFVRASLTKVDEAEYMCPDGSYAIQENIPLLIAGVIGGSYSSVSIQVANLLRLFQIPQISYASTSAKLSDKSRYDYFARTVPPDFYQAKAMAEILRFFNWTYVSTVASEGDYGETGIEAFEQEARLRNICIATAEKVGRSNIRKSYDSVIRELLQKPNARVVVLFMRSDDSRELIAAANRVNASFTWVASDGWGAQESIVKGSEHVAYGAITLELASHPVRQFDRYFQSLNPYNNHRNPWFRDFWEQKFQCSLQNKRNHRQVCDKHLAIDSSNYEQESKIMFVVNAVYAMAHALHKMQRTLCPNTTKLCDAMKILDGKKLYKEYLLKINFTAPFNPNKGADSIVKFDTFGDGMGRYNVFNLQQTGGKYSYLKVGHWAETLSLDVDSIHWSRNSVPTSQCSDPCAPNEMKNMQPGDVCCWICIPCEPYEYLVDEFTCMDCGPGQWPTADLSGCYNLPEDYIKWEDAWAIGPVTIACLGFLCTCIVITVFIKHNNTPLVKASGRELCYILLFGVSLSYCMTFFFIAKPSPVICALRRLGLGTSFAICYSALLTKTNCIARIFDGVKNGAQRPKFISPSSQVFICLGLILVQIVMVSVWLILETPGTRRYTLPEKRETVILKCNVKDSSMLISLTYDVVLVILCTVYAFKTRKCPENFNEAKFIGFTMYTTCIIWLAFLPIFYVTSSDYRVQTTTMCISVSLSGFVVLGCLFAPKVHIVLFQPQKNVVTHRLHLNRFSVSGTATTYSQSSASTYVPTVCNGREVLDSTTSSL
# [25] = tested on: Streptococcus sp. 'group A'; assay: Streptococcus pyogenes SK(-)GAS viability under kanamycin – luminescence, BacTiterGlo, confirmation, counter-screen for streptokinase expression inhibitor project, dose response (AID 1900); format: functional, organism-based
# Streptokinase A = target: T3, Streptokinase A (Streptococcus pyogenes serotype M1, UniProt P10520); assay: viability-normalized secreted streptokinase activity reduction – plasminogen activation absorbance, OD405, dose response (AID 1914); format: functional, Streptococcus pyogenes M1 GAS;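 note: secreted streptokinase activity via plasminogen activation per viability signal from cell pellet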
# T3 sequence (P10520 whole entry): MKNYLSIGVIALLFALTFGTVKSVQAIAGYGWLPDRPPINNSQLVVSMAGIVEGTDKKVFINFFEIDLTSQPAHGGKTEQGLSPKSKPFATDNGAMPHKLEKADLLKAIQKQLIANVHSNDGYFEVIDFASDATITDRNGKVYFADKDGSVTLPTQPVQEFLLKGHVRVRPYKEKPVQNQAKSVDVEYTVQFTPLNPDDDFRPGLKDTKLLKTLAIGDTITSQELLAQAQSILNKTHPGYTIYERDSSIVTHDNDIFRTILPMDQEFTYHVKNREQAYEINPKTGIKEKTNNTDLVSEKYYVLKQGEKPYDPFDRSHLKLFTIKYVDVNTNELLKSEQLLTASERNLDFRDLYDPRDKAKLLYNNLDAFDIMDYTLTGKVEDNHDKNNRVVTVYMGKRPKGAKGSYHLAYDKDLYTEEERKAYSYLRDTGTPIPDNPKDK
# Streptococcus = assay: GAS UMAA2166 growth inhibition – luminescence, BacTiterGlo, counter-screen for streptokinase expression inhibitor project, dose response (AID 1915); format: functional, organism-based;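 note: potency for reduction of bacterial viability or growth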
# [26] = Luminescence Cell-Based Dose Retest to Confirm Inhibitors of Cancer Stem Cells. [Related pubchem assays (depositor defined):AID2717, AID2721]; format: functional; details: Homo sapiens
# [27] = target: T4, Methionyl-tRNA synthetase, putative (Trypanosoma brucei brucei, UniProt Q38C91); format: functional, Trypanosoma brucei brucei strain 927/4 GUTat10.1
# T4 sequence (Q38C91 whole entry): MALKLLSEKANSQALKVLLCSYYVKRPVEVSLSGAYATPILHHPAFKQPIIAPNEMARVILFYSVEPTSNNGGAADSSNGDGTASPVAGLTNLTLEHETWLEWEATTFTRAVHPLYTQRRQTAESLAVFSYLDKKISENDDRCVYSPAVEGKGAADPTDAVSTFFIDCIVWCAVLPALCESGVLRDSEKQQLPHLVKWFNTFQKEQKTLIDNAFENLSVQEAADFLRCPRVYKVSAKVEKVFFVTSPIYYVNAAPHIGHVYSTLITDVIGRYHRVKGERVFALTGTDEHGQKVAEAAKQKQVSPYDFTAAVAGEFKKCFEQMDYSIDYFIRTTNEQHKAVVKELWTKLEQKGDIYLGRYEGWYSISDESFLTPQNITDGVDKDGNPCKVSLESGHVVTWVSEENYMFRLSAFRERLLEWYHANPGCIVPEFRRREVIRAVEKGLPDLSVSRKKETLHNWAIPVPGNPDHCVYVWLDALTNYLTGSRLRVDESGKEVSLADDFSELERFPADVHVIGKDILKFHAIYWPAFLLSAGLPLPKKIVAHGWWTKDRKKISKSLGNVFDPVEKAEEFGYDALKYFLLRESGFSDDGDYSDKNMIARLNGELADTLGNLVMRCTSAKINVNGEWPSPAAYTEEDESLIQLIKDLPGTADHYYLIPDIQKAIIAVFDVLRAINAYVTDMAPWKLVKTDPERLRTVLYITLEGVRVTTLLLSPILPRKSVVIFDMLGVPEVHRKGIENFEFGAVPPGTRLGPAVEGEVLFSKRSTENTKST
# [28] = Counterscreen for inhibitors of Trypanosoma brucei methionyl tRNA synthetase (MetRS): Luminescence-based cell-based high throughput dose response assay to identify compounds that are cytotoxic to Jurkat human T lymphocyte cells.; format: functional
# [29] = target: T4, Methionyl-tRNA synthetase, putative; format: functional, Trypanosoma brucei brucei strain 927/4 GUTat10.1; remark: listed apart in the source
# [30] = Late stage counterscreen for inhibitors of Trypanosoma brucei methionyl tRNA synthetase (MetRS): Luminescence-based cell-based high throughput dose response assay to identify compounds that are cytotoxic to Jurkat human T lymphocyte cells.; format: functional
# Cytochrome P450 2D6 = Cytochrome P450 2D6 (Homo sapiens, UniProt P10635);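 note: CYP2D6 member of a cytochrome P450 panel assay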
# Chain of Cytochrome P450 2D6 (P10635 whole entry): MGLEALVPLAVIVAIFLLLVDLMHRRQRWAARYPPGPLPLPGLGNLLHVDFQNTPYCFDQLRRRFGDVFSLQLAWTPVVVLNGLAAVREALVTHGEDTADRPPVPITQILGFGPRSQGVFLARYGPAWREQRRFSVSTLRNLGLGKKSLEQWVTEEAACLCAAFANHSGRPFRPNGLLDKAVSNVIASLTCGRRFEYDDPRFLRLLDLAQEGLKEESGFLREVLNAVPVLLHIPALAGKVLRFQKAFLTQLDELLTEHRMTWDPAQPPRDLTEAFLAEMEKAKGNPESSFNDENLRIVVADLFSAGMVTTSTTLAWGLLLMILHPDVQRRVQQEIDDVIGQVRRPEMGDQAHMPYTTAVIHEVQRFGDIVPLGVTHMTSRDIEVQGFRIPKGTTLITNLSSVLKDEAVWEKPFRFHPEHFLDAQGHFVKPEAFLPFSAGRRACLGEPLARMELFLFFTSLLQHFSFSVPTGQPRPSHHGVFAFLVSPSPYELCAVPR
structure (smiles),measurement,setting,value
C=C1C(=O)OC2C1CC/C(C)=C\CCC1(C)OC21 (centres undefined),AC50,[1],> 70 µM (inactive)
same,AC50,[2],43.9 µM (active)
Cn1nnnc1Sc1ncnc2scc(-c3ccc(Br)cc3)c12,EC50,[3],8.44 µM (active)
same,AC50,[4],0.334 µM (active)
same,AC50,[5],19.2 µM (active)
same,AC50,[6],14.4 µM (active)
same,AC50,Paired box protein Pax-8,3.56 µM (active)
same,AC50,[7],17.6 µM (active)
same,AC50,[8],5.82 µM (active)
same,AC50,[9],6.82 µM (active)
same,AC50,[10],7.97 µM (active)
same,AC50,[11],5.09 µM (active)
same,AC50,[12],8.94 µM (active)
same,AC50,[13],15.6 µM (active)
same,AC50,[14],11.2 µM (active)
Nc1c(-c2cccs2)cnc2c(-c3ccc(F)cc3)cnn12,EC50,[15],> 67.5 µM (inactive)
Cn1c(C(=O)N2CCN(c3nc4ccccc4s3)CC2)cc2sccc21,AC50,[16],3.01 µM (active)
same,AC50,[17],4.97 µM (active)
same,AC50,[18],16.4 µM (active)
same,AC50,[19],8.02 µM (active)
CC(=NCCc1ccc(O)cc1)C1=C(O)OCC1,IC50,cells [20],> 29.9 µM (inactive)
same,EC50,[21],2.05 µM (active)
same,IC50,[22],9.27 µM (active)
same,EC50,cells [23],> 29.9 µM (inactive)
COc1ccc(C#Cc2ccc(C(=O)N3CCCC4(C3)OCCO4)cc2)cc1,IC50,[24],7.17 µM
O=C(NNC(=O)c1cc(-c2ccc(Cl)c(Cl)c2)nc2ccccc12)Nc1ccccc1,EC50,[25],4.69 µM (active)
same,EC50,Streptokinase A,> 150 µM (not active)
same,EC50,Streptococcus,13.7 µM (active)
same,AC50,[26],4.94 µM (active)
same,IC50,[27],3.12 µM (active)
same,IC50,[28],34.2 µM (inactive)
same,IC50,[29],1.64 µM (active)
same,IC50,[30],22.4 µM (inactive)
same,AC50,Cytochrome P450 2D6,20 µM (inconclusive)
